Literature values, collected in patent US6579533B1, “Bioabsorbable drug delivery system for local treatment and prevention of infections” (Bioasborbable Concepts, Ltd., priority 1999, dated 2003).

Tested on: most microbial strains

## O=C(O)c1cn(C2CC2)c2cc(N3CCNCC3)c(F)cc2c1=O [ciprofloxacin]
  minimum inhibition concentration (MIC): < 2 mg/L
